Our source for the Ki values is patent publication US11447505B1, “Pyrrolo[2,3-b]pyridine compounds and their use in the treatment of cancer” (priority 2017, dated 2022).

One assay addresses MRCKβ (Homo sapiens (Human), UniProt Q9Y5S2). Put plainly: MRCKβ kinase assay (IMAP fluorescence polarization). The assay is classed as biochemical. The following applies: 1 μM ATP; read-out: MRCK-B Average Ki. The source says: (§1) MRCKα, MRCKβ, ROCK1 and ROCK2 Kinase Assays
The target in another assay is ROCK1 (Homo sapiens (Human), UniProt Q13464). The conditions noted are these: read-out: ROCK1 Average Ki; 1 μM ATP.
Chain of ROCK1 (Q13464 2-1354 limits assumed): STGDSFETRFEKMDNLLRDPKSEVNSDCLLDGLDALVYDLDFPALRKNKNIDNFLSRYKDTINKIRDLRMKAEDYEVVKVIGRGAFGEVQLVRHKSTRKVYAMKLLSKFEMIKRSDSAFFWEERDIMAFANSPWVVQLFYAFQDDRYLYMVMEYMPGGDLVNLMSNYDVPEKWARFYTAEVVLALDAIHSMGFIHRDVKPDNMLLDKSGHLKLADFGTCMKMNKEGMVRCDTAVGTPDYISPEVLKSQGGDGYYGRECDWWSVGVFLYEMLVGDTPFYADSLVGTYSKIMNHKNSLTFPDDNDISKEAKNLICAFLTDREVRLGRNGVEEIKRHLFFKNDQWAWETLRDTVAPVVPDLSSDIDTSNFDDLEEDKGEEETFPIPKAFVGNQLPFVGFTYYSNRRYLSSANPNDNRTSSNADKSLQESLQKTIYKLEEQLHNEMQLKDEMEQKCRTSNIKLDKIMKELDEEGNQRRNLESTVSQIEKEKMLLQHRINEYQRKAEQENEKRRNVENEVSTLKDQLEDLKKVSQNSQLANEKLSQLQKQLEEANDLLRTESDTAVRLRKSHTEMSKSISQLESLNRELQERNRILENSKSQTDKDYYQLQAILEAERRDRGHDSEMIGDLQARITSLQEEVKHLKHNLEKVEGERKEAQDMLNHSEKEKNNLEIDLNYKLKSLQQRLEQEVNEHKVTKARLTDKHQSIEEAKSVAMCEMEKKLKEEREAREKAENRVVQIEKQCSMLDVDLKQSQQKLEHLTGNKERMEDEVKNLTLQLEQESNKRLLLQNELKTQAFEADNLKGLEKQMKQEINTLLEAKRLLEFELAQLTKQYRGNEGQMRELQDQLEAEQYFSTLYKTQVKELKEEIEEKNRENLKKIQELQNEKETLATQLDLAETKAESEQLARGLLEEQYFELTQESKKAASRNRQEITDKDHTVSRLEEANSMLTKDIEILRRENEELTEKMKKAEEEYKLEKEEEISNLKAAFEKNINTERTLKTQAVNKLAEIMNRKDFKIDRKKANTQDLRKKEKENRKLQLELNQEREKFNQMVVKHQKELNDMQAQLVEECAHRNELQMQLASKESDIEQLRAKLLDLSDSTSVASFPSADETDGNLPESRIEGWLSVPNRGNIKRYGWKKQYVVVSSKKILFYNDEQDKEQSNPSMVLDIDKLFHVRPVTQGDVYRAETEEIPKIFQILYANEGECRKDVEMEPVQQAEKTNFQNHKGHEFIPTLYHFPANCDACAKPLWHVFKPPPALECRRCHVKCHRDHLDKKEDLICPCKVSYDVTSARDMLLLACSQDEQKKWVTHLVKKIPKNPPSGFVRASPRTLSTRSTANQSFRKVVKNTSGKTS
In a further assay the target is ROCK2 (Homo sapiens (Human), UniProt O75116). Put plainly: ROCK2 kinase assay (IMAP fluorescence polarization). The format is biochemical. The conditions noted are these: 1 μM ATP; read-out: ROCK2 Average Ki. (In general: In fluorescence polarisation assays a small probe gives low polarisation when free and higher when bound to something large.)
Chain of ROCK2 (O75116 whole entry): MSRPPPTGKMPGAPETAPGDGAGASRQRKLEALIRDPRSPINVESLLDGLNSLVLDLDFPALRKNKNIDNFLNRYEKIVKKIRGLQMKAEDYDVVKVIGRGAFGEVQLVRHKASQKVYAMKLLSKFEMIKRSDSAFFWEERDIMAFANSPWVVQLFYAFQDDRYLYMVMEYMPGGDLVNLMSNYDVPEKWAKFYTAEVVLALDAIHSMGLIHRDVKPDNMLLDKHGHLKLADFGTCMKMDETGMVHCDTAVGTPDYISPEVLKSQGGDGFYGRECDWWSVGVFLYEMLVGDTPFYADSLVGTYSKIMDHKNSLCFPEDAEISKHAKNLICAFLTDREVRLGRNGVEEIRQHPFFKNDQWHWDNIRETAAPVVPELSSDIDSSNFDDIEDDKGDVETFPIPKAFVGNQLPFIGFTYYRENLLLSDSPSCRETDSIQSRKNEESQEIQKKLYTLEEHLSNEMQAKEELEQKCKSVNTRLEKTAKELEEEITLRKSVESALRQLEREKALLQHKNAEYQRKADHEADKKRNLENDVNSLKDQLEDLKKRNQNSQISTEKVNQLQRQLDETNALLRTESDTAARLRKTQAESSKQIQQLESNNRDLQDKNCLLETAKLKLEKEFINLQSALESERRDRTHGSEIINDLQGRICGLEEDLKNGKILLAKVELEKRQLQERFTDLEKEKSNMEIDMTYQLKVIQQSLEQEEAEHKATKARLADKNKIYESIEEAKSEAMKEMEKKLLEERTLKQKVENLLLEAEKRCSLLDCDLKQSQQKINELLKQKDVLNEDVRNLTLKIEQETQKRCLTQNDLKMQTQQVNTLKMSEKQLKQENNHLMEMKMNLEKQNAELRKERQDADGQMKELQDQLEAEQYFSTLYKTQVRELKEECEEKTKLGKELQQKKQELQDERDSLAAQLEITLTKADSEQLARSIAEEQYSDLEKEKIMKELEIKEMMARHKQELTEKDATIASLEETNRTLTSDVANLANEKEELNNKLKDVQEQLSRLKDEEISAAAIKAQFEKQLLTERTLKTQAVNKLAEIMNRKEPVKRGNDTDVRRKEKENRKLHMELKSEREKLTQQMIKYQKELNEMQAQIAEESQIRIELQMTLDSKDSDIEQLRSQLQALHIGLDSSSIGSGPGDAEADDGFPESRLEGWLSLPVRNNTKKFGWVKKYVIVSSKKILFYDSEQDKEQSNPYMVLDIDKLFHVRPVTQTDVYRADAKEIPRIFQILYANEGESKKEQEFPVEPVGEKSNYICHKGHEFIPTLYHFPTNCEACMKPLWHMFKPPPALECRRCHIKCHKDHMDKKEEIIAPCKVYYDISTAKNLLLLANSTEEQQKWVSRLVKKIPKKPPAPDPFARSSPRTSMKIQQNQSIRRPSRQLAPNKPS
The next assay has as its target MRCKα (Homo sapiens (Human), UniProt Q5VT25). Put plainly: MRCKα kinase assay (IMAP fluorescence polarization). The conditions noted are these: 1 μM ATP; read-out: MRCK-a Average Ki. The assay is classed as biochemical.
Description: as §1

Chain of MRCKα (Q5VT25 whole entry): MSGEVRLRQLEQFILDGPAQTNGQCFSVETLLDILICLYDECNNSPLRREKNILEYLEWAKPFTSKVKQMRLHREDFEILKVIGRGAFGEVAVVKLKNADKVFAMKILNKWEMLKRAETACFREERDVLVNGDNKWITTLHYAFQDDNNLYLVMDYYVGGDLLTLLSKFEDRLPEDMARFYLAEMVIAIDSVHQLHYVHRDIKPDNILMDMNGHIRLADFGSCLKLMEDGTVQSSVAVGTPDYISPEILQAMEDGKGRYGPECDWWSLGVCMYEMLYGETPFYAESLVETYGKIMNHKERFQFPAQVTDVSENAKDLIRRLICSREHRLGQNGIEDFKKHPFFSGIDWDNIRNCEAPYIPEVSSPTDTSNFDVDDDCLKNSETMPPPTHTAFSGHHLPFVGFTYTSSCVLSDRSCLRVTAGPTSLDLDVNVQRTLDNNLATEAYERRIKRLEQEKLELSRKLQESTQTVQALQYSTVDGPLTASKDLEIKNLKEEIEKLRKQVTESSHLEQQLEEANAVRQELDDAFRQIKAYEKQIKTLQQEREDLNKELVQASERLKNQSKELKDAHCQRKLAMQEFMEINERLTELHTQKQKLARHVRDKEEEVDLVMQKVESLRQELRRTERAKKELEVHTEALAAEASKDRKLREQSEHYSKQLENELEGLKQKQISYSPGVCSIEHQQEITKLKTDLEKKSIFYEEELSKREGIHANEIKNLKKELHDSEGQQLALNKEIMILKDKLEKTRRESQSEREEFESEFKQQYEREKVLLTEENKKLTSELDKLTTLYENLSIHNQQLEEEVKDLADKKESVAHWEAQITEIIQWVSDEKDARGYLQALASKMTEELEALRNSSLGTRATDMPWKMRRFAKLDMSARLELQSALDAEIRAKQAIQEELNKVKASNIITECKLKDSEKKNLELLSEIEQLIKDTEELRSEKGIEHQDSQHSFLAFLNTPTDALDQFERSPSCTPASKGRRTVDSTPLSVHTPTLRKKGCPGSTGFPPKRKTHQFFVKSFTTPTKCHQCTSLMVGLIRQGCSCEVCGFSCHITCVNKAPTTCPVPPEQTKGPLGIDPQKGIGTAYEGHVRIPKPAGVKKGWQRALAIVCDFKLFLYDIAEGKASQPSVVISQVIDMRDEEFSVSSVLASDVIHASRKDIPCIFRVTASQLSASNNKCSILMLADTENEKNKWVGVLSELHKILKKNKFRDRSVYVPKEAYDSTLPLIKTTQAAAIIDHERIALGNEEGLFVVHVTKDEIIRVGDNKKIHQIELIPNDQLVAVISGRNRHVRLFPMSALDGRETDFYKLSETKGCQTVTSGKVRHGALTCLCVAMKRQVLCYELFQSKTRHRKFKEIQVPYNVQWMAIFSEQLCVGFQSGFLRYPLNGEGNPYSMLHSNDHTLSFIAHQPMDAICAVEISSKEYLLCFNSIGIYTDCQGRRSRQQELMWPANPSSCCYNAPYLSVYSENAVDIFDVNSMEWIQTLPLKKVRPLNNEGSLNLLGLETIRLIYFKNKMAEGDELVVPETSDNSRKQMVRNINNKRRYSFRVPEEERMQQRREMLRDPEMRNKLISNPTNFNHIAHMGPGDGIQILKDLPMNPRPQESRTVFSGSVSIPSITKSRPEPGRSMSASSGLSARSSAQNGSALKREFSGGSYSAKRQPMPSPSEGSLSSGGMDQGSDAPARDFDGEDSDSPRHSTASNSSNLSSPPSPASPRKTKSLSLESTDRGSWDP
Description for ROCK1: MRCKα, MRCKβ, ROCK1 and ROCK2 assays were performed using an IMAP fluorescence polarization assay format (Molecular Devices Inc.). […] Typically, dose response analyses were performed over concentration ranges from 0.005-100 μM. […] After 30 min incubation to allow binding reagent to bind phosphorylated peptide, fluorescence polarization was measured on a Tecan Saphire^2 plate reader at excitation (470 nm) and emission (530 nm) wavelengths.

With `Cc1cnc2[nH]cc(-c3cn[nH]c3)c2c1N1CCCCC1` [Example E2, 5-methyl-4-(1-piperidyl)-3-(1H-pyrazol-4-yl)-1H-pyrrolo[2,3-b]pyridine], the inhibitory constant (Ki) (usually a dissociation constant, usually derived from enzyme kinetics or from competition with a known ligand) on MRCKβ came to 0.0364 µM; at ROCK1, 0.207 µM; at ROCK2, 0.102 µM; on MRCKα it was 0.0197 µM.

Regarding `CN1CCCN(c2ccnc3[nH]cc(C#N)c23)CC1` [Example E30, 4-(4-methyl-1,4-diazepan-1-yl)-1H-pyrrolo[2,3-b]pyridine-3-carbonitrile], the Ki is 0.00573 µM at MRCKβ, 0.0243 µM on ROCK1, 0.0203 µM on ROCK2 and 0.0128 µM at MRCKα.

Consider `CN(C)c1ccnc2[nH]cc(C#N)c12` [Example E31, 4-(dimethylamino)-1H-pyrrolo[2,3-b]pyridine-3-carbonitrile], for which the Ki on MRCKβ is 0.0167 µM; at ROCK1 it was 0.0436 µM; at ROCK2, 0.0241 µM; on MRCKα, 0.0479 µM.

Regarding `N#Cc1c[nH]c2nccc(N3CCCCC3)c12` [Example E35, 4-(1-piperidyl)-1H-pyrrolo[2,3-b]pyridine-3-carbonitrile], the Ki on MRCKβ came to 0.00901 µM; on ROCK1 it was 0.0579 µM; at ROCK2 it was 0.016 µM; on MRCKα, 0.0143 µM.

Consider `N#Cc1c[nH]c2nccc(N3CCCC3)c12` [Example E36, 4-pyrrolidin-1-yl-1H-pyrrolo[2,3-b]pyridine-3-carbonitrile], for which the Ki was 0.0789 µM on MRCKβ, 0.0906 µM on ROCK1, 0.0658 µM on ROCK2 and 0.0821 µM on MRCKα.

With `CNc1ccnc2[nH]cc(C#N)c12` [Example E37, 4-(methylamino)-1H-pyrrolo[2,3-b]pyridine-3-carbonitrile], the Ki at MRCKβ worked out at 0.0399 µM; at ROCK1, 0.0438 µM; on ROCK2 it was 0.0303 µM; on MRCKα, 0.125 µM.

On to `CN[C@H]1CCCN(c2ccnc3[nH]cc(-c4cnn(C)c4)c23)C1` [Example E55, (3S)-N-methyl-1-[3-(1-methylpyrazol-4-yl)-1H-pyrrolo[2,3-b]pyridin-4-yl]piperidin-3-amine], for which the Ki at MRCKβ is 0.00731 µM; at ROCK1, 0.301 µM; at ROCK2, 0.129 µM; on MRCKα, 0.0189 µM.

As to `CN[C@H]1CCCN(c2ccnc3[nH]cc(-c4cncnc4)c23)C1` [Example E57, (3S)-N-methyl-1-(3-pyrimidin-5-yl-1H-pyrrolo[2,3-b]pyridin-4-yl)piperidin-3-amine], the Ki at MRCKβ worked out at 0.00234 µM; at ROCK1, 50.7 µM; on ROCK2, 0.545 µM; at MRCKα it was 0.00293 µM.

Take `CNC1CCCN(c2ccnc3[nH]cc(-c4cncnc4)c23)CC1` (stereo not shown) [Example E68, N-methyl-1-(3-pyrimidin-5-yl-1H-pyrrolo[2,3-b]pyridin-4-yl)azepan-4-amine]: the Ki at MRCKβ was determined as 0.00109 µM; at ROCK1, 0.0559 µM; at ROCK2, 0.0369 µM; at MRCKα it was 0.000382 µM.

For `N[C@H]1CCCN(c2ccnc3[nH]cc(-c4cncnc4)c23)C1` [Example E69, (3S)-1-(3-pyrimidin-5-yl-1H-pyrrolo[2,3-b]pyridin-4-yl)piperidin-3-amine], the inhibition constant (Ki) was 0.00272 µM on MRCKβ, 0.461 µM on ROCK1, 0.274 µM at ROCK2 and 0.0045 µM at MRCKα.

As for `CN[C@H]1CCCN(c2ccnc3[nH]cc(-c4cnccn4)c23)C1` [Example E72, (3S)-N-methyl-1-(3-pyrazin-2-yl-1H-pyrrolo[2,3-b]pyridin-4-yl)piperidin-3-amine], the Ki on MRCKβ is 0.00298 µM; on ROCK1, 51.1 µM; on ROCK2, 0.268 µM; at MRCKα it was 0.000629 µM.

Turning to `CCN[C@H]1CCCN(c2ccnc3[nH]cc(-c4cnn(C)c4)c23)C1` [Example E78, (3S)-N-ethyl-1-[3-(1-methylpyrazol-4-yl)-1H-pyrrolo[2,3-b]pyridin-4-yl]piperidin-3-amine], the Ki at MRCKβ worked out at 0.00851 µM; at ROCK1, 0.105 µM; on ROCK2, 0.0615 µM; at MRCKα it was 0.00348 µM.

As to `CCN[C@H]1CCCN(c2ccnc3[nH]cc(-c4cncnc4)c23)C1` [Example E79, (3S)-N-ethyl-1-(3-pyrimidin-5-yl-1H-pyrrolo[2,3-b]pyridin-4-yl)piperidin-3-amine], the Ki on MRCKβ was determined as 0.00227 µM; on ROCK1, 50.7 µM; at ROCK2, 0.448 µM; on MRCKα, 0.00123 µM.

Take `c1ncc(-c2c[nH]c3nccc(N4CCC[C@H](NC5CC5)C4)c23)cn1` [Example E81, (3S)-N-cyclopropyl-1-(3-pyrimidin-5-yl-1H-pyrrolo[2,3-b]pyridin-4-yl)piperidin-3-amine]: the Ki was 0.00336 µM at MRCKβ, 0.357 µM at ROCK1, 0.184 µM at ROCK2 and 0.000935 µM at MRCKα.

As for `CN(C)[C@H]1CCCN(c2ccnc3[nH]cc(-c4cncnc4)c23)C1` [Example E82, (3S)-N,N-dimethyl-1-(3-pyrimidin-5-yl-1H-pyrrolo[2,3-b]pyridin-4-yl)piperidin-3-amine], the Ki turned out to be 0.0131 µM at MRCKβ, 0.647 µM on ROCK1, 0.362 µM at ROCK2 and 0.0172 µM at MRCKα.

Regarding `CN[C@H]1CCCN(c2ccnc3[nH]cc(-c4cn[nH]c4)c23)C1` [Example E84, (3S)-N-methyl-1-[3-(1H-pyrazol-4-yl)-1H-pyrrolo[2,3-b]pyridin-4-yl]piperidin-3-amine], the Ki on MRCKβ stood at 0.00342 µM; at ROCK1, 0.167 µM; at ROCK2, 0.0372 µM; on MRCKα, 0.000522 µM.

In the case of `NCC1CCCN(c2ccnc3[nH]cc(-c4cncnc4)c23)C1` (stereo not shown) [Example E86, [1-(3-pyrimidin-5-yl-1H-pyrrolo[2,3-b]pyridin-4-yl)-3-piperidyl]methanamine], the Ki on MRCKβ was 0.00185 µM; at ROCK1 it was 0.0082 µM; at ROCK2 it was 0.0105 µM; on MRCKα, 0.0046 µM.

Turning to `FC1CCN([C@H]2CCCN(c3ccnc4[nH]cc(-c5cncnc5)c34)C2)C1` (stereo partly drawn) [Example E95, 4-[(3S)-3-(3-fluoropyrrolidin-1-yl)-1-piperidyl]-3-pyrimidin-5-yl-1H-pyrrolo[2,3-b]pyridine], the Ki was 0.00698 µM on MRCKβ, 0.689 µM on ROCK1, 0.395 µM on ROCK2 and 0.0194 µM on MRCKα.

Turning to `c1ncc(-c2c[nH]c3nccc(N4CCC[C@H](N5CCC5)C4)c23)cn1` [Example E97, 4-[(3S)-3-(azetidin-1-yl)-1-piperidyl]-3-pyrimidin-5-yl-1H-pyrrolo[2,3-b]pyridine], the Ki at MRCKβ was 0.00393 µM; at ROCK1, 0.686 µM; at ROCK2, 0.366 µM; on MRCKα, 0.0052 µM.

With `c1ncc(-c2c[nH]c3nccc(N4CCC[C@H](N5CCCCC5)C4)c23)cn1` [Example E98, 4-[(3S)-3-(1-piperidyl)-1-piperidyl]-3-pyrimidin-5-yl-1H-pyrrolo[2,3-b]pyridine], the Ki is 0.00424 µM on MRCKβ, 2.53 µM on ROCK1, 0.979 µM at ROCK2 and 0.0079 µM at MRCKα.

As to `c1ncc(-c2c[nH]c3nccc(N4CCC[C@H](N5CCCC5)C4)c23)cn1` [Example E99, 3-pyrimidin-5-yl-4-[(3S)-3-pyrrolidin-1-yl-1-piperidyl]-1H-pyrrolo[2,3-b]pyridine], the Ki was found to be 0.00381 µM at MRCKβ, 1.68 µM at ROCK1, 0.603 µM on ROCK2 and 0.0058 µM at MRCKα.

Regarding `C[C@@H]1CCCN1c1ccnc2[nH]cc(C#N)c12` [Example E110, 4-[(2R)-2-methylpyrrolidin-1-yl]-1H-pyrrolo[2,3-b]pyridine-3-carbonitrile], the Ki at MRCKβ was found to be 0.00144 µM; on ROCK1, 0.00278 µM; at ROCK2 it was 0.00244 µM; at MRCKα it was 0.0046 µM.

As for `C[C@H]1CCCN1c1ccnc2[nH]cc(C#N)c12` [Example E111, 4-[(2S)-2-methylpyrrolidin-1-yl]-1H-pyrrolo[2,3-b]pyridine-3-carbonitrile], the Ki at MRCKβ turned out to be 0.0397 µM; on ROCK1, 0.0852 µM; at ROCK2, 0.0255 µM; on MRCKα, 0.123 µM.

For the molecule `c1cc(-c2c[nH]c3nccc(N4CCC[C@]5(CCCCN5)C4)c23)ncn1` [Example E118, (6R)-8-(3-pyrimidin-4-yl-1H-pyrrolo[2,3-b]pyridin-4-yl)-1,8-diazaspiro[5.5]undecane], the Ki amounted to 0.00147 µM at MRCKβ, 50.3 µM on ROCK1, 0.299 µM at ROCK2 and 0.00289 µM at MRCKα.

For the molecule `c1cnc(-c2c[nH]c3nccc(N4CCCC5(CCCCN5)C4)c23)nc1` (stereo not shown) [Example E157, 8-(3-pyrimidin-2-yl-1H-pyrrolo[2,3-b]pyridin-4-yl)-1,8-diazaspiro[5.5]undecane], the Ki at MRCKβ is 0.00104 µM; at ROCK1, 100 µM; at ROCK2, 100 µM; at MRCKα, 0.00134 µM.

With `c1cnnc(-c2c[nH]c3nccc(N4CCCC5(CCCCN5)C4)c23)c1` (stereo not shown) [Example E175, 8-(3-pyridazin-3-yl-1H-pyrrolo[2,3-b]pyridin-4-yl)-1,8-diazaspiro[5.5]undecane], the Ki was 0.0015 µM at MRCKβ, 1.86 µM on ROCK1, 0.547 µM on ROCK2 and 0.000257 µM on MRCKα.

Take `c1cc(-c2c[nH]c3nccc(N4CCCCC4)c23)[nH]n1` [Example E181, 4-(1-piperidyl)-3-(1H-pyrazol-5-yl)-1H-pyrrolo[2,3-b]pyridine]: the Ki on MRCKβ is 0.00945 µM; on ROCK1, 0.025 µM; on ROCK2, 0.0155 µM; on MRCKα it was 0.0091 µM.

Take `c1cncc(-c2c[nH]c3nccc(N4CCCCC4)c23)c1` [Example E182, 4-(1-piperidyl)-3-(3-pyridyl)-1H-pyrrolo[2,3-b]pyridine]: the Ki came out at 0.0188 µM at MRCKβ, 0.132 µM at ROCK1, 0.09 µM at ROCK2 and 0.009 µM on MRCKα.
